Calls of active or inactive are those of the source. The calls are words filed in the database; no cut-off is given here.
Tests used:
[1] = target: PI3-kinase p110-alpha/p85-alpha (Homo sapiens, UniProt P42336); assay: Inhibition of PI3K p110alpha/p85alpha (unknown origin) using PIP2 as substrate after 1 hr by luminescent kinase-Glo assay; format: protein-complex assay
PC-3 = assay: Antiproliferative activity against human PC3 cells after 72 hrs by SRB assay; format: functional, cell-based; conditions: PC-3, 72 h
HCT-116 = assay: Antiproliferative activity against human HCT116 cells after 72 hrs by SRB assay; format: functional, cell-based; conditions: HCT-116, 72 h
PI3K p110 beta/p85 alpha = PI3K p110 beta/p85 alpha (Homo sapiens, UniProt P42338); assay: Inhibition of recombinant full length human N-terminal His6-tagged PI3K p110beta/p85alpha expressed in baculovirus infected Sf21 cells using PIP2 as substrate after 1 hr by ADP-Glo kinase assay
Chain of PI3K p110 beta/p85 alpha (P27986 whole entry, canonical isoform): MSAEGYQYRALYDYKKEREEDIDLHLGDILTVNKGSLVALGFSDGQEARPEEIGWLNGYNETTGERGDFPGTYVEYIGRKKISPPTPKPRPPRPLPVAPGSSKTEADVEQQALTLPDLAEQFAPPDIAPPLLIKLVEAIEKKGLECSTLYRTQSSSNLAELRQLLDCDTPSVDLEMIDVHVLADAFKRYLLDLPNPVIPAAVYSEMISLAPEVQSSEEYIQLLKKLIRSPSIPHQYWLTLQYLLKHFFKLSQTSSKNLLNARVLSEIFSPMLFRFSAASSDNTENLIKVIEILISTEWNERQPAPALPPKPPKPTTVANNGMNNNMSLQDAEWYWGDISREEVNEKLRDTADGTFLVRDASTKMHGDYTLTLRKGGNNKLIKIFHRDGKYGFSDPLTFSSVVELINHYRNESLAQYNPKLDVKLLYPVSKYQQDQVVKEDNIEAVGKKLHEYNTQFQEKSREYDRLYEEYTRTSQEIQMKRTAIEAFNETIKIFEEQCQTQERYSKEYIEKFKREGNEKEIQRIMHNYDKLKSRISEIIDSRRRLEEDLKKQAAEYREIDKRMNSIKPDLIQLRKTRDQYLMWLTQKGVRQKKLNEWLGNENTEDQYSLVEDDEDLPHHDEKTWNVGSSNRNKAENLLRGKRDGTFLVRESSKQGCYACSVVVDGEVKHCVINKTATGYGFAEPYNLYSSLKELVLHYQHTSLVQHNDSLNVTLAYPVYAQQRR
Chain of PI3K p110 beta/p85 alpha (P42338 whole entry, canonical isoform): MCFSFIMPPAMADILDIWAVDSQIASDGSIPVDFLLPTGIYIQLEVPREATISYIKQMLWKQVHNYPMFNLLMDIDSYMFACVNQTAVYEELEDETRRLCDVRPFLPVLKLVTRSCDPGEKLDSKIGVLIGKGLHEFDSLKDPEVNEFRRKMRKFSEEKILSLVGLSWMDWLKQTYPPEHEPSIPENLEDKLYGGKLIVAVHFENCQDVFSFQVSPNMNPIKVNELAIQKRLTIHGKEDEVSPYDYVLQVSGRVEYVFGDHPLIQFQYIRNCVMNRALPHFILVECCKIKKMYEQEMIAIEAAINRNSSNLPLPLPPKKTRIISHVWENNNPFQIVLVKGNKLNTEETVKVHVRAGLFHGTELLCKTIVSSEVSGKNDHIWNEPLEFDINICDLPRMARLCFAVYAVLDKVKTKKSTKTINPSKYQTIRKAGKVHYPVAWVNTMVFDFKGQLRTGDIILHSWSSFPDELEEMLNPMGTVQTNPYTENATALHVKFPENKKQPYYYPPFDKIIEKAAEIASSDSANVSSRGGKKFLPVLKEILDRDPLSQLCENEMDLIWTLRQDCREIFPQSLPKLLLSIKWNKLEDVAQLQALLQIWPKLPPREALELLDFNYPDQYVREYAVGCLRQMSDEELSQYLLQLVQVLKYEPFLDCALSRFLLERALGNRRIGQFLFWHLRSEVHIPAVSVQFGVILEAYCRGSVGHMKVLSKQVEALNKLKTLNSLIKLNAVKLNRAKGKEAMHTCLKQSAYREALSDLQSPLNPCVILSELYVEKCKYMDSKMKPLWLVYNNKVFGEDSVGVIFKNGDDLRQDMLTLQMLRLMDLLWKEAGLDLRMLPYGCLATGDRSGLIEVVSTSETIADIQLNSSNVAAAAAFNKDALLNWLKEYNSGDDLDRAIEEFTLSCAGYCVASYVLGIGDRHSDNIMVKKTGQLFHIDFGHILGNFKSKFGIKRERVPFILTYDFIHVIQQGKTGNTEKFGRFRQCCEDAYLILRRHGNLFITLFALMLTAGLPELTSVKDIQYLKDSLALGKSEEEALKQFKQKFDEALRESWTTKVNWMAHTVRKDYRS

[2] = target: Phosphatidylinositol 4,5-bisphosphate 3-kinase catalytic subunit gamma isoform (Homo sapiens, UniProt P48736); assay: Inhibition of recombinant full length His-tagged human PI3K p110gamma expressed in baculovirus expression system using PIP2 as substrate after 1 hr by ADP-Glo kinase assay
Chain of Phosphatidylinositol 4,5-bisphosphate 3-kinase catalytic subunit gamma isoform (P48736 whole entry, canonical isoform): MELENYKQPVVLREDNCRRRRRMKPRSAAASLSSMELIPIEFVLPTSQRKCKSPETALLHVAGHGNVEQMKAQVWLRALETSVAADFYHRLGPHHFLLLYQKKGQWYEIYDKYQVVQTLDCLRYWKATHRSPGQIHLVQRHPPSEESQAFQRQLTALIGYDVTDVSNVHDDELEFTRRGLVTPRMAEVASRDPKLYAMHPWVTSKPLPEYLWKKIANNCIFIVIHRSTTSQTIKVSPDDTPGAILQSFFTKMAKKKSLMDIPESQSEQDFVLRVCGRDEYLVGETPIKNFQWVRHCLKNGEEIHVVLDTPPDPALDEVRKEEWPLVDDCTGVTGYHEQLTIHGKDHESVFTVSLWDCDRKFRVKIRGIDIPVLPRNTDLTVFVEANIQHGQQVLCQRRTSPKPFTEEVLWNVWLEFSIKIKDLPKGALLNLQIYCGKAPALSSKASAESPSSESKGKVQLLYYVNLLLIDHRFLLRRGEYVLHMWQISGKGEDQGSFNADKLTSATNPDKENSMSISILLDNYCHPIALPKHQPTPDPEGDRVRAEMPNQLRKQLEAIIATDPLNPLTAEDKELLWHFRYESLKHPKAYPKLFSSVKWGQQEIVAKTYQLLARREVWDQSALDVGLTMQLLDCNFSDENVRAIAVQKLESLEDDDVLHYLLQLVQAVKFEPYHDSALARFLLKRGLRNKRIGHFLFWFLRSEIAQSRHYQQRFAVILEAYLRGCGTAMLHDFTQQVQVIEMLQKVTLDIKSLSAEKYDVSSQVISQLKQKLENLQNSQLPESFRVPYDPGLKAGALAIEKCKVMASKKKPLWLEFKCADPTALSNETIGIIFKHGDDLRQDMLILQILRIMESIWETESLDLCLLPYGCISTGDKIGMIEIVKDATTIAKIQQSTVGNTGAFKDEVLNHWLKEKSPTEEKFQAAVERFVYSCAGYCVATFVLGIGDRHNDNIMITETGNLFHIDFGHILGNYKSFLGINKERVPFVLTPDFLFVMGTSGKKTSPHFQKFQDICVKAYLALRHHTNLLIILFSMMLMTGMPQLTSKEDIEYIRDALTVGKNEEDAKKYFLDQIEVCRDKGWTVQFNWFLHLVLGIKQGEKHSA

[3] = target: T1, Phosphatidylinositol 4,5-bisphosphate 3-kinase catalytic subunit delta isoform (Homo sapiens, UniProt O00329); assay: Inhibition of PI3K p110delta (unknown origin) using PIP2 as substrate after 1 hr by ADP-Glo kinase assay
T1 sequence (O00329 whole entry): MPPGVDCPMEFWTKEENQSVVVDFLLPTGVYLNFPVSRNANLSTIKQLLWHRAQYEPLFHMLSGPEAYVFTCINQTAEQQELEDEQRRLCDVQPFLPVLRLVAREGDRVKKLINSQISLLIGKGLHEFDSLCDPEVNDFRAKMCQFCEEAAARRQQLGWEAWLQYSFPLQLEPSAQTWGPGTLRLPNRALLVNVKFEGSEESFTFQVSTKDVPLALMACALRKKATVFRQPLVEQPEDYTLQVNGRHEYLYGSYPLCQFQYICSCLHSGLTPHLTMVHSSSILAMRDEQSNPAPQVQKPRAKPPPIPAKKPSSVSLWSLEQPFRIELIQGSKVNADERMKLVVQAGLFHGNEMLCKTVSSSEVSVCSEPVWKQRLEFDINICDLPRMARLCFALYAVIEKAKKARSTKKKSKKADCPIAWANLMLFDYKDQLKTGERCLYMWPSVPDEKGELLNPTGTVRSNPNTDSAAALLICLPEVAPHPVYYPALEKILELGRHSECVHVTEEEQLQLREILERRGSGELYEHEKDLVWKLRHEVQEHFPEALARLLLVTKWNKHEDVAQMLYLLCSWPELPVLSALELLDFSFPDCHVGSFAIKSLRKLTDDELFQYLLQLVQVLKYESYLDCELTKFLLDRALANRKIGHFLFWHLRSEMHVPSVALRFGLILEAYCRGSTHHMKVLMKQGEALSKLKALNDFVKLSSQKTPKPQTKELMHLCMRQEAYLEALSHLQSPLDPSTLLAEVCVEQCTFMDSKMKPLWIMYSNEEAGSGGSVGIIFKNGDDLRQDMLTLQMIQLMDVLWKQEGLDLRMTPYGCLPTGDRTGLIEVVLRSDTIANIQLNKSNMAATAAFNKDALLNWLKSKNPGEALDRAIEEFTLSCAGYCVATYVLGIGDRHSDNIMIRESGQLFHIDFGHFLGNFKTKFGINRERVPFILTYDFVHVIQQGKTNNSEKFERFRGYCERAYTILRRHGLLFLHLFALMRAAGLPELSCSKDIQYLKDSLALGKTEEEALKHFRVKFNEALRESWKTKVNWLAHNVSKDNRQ

Homo sapiens = organism: Homo sapiens; assay: Inhibition of PI3K in PTEN null human PC3 cells assessed as reduction in Akt phosphorylation at Ser-473 residue at 100 nM after 3 hrs by Western blot method; format: cell-based
[4] = target: Serine/threonine-protein kinase mTOR (Homo sapiens, UniProt P42345); assay: Inhibition of recombinant human N-terminal FLAG-tagged mTOR (1362-end residues) using ULight-4E-BP1 peptide substrate after 1 hr in presence of ATP by Lance Ultra assay
[5] = Plasma clearance in mouse at 5 mg/kg, po by UPLC-MS/MS analysis; format: ADME, organism-based
Mus musculus = assay: Volume of distribution in mouse at 5 mg/kg, po by UPLC-MS/MS analysis; format: ADME, organism-based; conditions: in vivo
[6] = Mean residence time in mouse at 5 mg/kg, po by UPLC-MS/MS analysis; format: ADME, organism-based; conditions: in vivo
[7] = AUCt in mouse at 5 mg/kg, po by UPLC-MS/MS analysis; format: ADME, organism-based; conditions: in vivo
[8] = Cmax in mouse at 5 mg/kg, po by UPLC-MS/MS analysis; format: ADME, organism-based; set-up: dose 5 mg/kg, route oral; conditions: in vivo
[9] = Terminal half life in mouse at 5 mg/kg, po by UPLC-MS/MS analysis; format: ADME, organism-based; conditions: in vivo, read-out: beta t1/2 (converted)

Chain of PI3-kinase p110-alpha/p85-alpha (P27986 whole entry): as the sequence (P27986 whole entry, canonical isoform) above
Chain of PI3-kinase p110-alpha/p85-alpha (P42336 whole entry): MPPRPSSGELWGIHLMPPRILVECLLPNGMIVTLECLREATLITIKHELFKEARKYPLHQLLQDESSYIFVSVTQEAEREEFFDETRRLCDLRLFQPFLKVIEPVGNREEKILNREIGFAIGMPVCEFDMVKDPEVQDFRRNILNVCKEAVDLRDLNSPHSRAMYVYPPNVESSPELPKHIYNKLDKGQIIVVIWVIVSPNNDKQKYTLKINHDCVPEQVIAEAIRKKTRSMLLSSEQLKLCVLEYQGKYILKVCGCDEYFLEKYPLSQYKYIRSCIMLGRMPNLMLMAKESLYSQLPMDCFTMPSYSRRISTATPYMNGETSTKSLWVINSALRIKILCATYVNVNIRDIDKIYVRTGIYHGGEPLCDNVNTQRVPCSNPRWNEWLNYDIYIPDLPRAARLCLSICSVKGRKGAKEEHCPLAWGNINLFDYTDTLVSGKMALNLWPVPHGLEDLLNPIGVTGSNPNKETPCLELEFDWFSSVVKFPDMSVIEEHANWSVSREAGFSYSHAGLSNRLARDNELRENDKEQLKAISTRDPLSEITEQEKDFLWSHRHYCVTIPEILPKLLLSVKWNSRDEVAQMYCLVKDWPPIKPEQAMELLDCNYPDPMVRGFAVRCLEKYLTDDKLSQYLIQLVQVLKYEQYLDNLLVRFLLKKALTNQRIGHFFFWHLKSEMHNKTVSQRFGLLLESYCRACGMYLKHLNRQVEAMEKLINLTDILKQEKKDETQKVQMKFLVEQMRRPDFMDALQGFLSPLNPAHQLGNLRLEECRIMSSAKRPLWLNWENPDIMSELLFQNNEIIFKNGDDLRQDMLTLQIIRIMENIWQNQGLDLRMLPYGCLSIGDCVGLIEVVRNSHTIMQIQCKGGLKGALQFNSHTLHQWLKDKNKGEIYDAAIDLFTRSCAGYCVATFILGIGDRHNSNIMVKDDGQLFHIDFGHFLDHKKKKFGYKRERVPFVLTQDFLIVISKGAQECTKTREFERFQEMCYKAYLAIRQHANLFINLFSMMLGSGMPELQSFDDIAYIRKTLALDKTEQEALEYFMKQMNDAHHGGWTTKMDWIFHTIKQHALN

SMILES	IC50 [1] [µM]	IC50 (PC-3) [µM]	IC50 (HCT-116) [µM]	also measured
COc1ncc(-c2ccc3ncc(NC(=O)CN4CCOCC4)c(OC)c3c2)cc1NS(=O)(=O)c1ccc(F)cc1	0.0027	1.83	2.83	–
COc1ncc(-c2ccc3ncc(NCC4CCN(S(C)(=O)=O)CC4)c(OC)c3c2)cc1NS(=O)(=O)c1ccc(F)cc1F	0.0047	2.85	1.36	–
COc1ncc(-c2ccc3ncc(NC(=O)CN4CCOCC4)c(OC)c3c2)cc1NS(=O)(=O)c1ccc(C(F)(F)F)cc1	0.00226	3.75	2.52	–
COc1ccc(CNc2cnc3ccc(-c4cnc(OC)c(NS(=O)(=O)c5ccc(F)cc5F)c4)cc3c2OC)cc1	0.027	4.52	10.2	–
COc1ncc(-c2ccc3ncc(NCC4CCCCC4)c(OC)c3c2)cc1NS(=O)(=O)c1ccc(F)cc1F	0.21	9	13.6	–
COc1ncc(-c2ccc3ncc(NC(=O)CN4CCOCC4)c(OC)c3c2)cc1NS(=O)(=O)c1ccc(F)cc1F	0.0017	0.08	0.47	IC50 (PI3K p110 beta/p85 alpha): 0.0039 µM; IC50 [2]: 0.0084 µM; IC50 [3]: 0.00087 µM; inhibition (Homo sapiens): Active; IC50 [4]: 0.01 µM; CL/F [5]: 7 mL/min/kg; Vd (Mus musculus): 1 L/kg; MRT [6]: 2.7 h; AUC(0-t) [7]: 11700 ng·h/mL; Cmax [8]: 2950 ng/mL; half-life [9]: 1.6 h
COc1ncc(-c2ccc3ncc(NC(=O)CN4CCCC(O)C4)c(OC)c3c2)cc1NS(=O)(=O)c1ccc(F)cc1F (stereo unspecified)	0.0015	1.34	1.77	–
COc1ncc(-c2ccc3ncc(NCc4ccccc4)c(OC)c3c2)cc1NS(=O)(=O)c1ccc(F)cc1F	0.036	4.32	16.8	–
COc1ncc(-c2ccc3ncc(NC(=O)CN4CCN(C)CC4)c(OC)c3c2)cc1NS(=O)(=O)c1ccc(F)cc1F	0.0032	1.73	1.54	–
CCNc1cnc2ccc(-c3cnc(OC)c(NS(=O)(=O)c4ccc(F)cc4F)c3)cc2c1OC	0.0094	4.82	1.85	–
COc1ncc(-c2ccc3ncc(NC(=O)CN(C)CCO)c(OC)c3c2)cc1NS(=O)(=O)c1ccc(F)cc1F	0.0013	2	1.79	–
COc1ncc(-c2ccc3ncc(NC(=O)CN4CCC(O)CC4)c(OC)c3c2)cc1NS(=O)(=O)c1ccc(F)cc1F	0.002	3.21	1.98	–
Cn1c(=O)n(-c2ccc(C(C)(C)C#N)cc2)c2c3cc(-c4cnc5ccccc5c4)ccc3ncc21 [DACTOLISIB]	–	0.51	0.22	–
COc1ncc(-c2ccc3ncc(NCc4ccc(C(F)(F)F)cc4)c(OC)c3c2)cc1NS(=O)(=O)c1ccc(F)cc1F	0.03	2.88	3.22	–
COc1ncc(-c2ccc3ncc(NCC4CCN(C(C)=O)CC4)c(OC)c3c2)cc1NS(=O)(=O)c1ccc(F)cc1F	0.0037	2.57	1.93	–
COc1ncc(-c2ccc3ncc(NC(=O)C4CCCCC4)c(OC)c3c2)cc1NS(=O)(=O)c1ccc(F)cc1F	0.015	6.63	4.61	–
COc1ncc(-c2ccc3ncc(NC(C)=O)c(OC)c3c2)cc1NS(=O)(=O)c1ccc(F)cc1F	0.0084	1.24	0.55	–
